Measured values: US6927228B2, “Biaromatic compound activators of PPARγ-type receptors” (Galderma Research & Development, S.N.C., priority 2000, dated 2005)
Marks after values point to notes of the source that are not given here.

Experiments:
[1] = target: T1, PPARα receptors (Homo sapiens, UniProt Q07869); assay: PPARα transactivation test; format: cell-based; conditions: concentration of 1 μM, relative to Wy 14643 = 100%
T1 construct: expressed in transfected cells
T1 sequence (Q07869 1-468): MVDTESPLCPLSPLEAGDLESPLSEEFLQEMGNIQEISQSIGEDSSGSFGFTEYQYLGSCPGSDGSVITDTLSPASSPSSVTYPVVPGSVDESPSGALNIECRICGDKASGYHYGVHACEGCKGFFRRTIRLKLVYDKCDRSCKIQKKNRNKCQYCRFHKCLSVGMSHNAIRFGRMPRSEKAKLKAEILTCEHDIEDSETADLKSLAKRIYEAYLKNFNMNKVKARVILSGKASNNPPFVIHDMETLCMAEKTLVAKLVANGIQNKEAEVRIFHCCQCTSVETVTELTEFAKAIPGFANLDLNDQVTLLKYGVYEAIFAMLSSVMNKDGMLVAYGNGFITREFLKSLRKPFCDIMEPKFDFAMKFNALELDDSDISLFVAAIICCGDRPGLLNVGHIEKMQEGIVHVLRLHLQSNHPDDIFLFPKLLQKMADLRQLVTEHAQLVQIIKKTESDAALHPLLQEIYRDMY
Text: [Worded in the source for another target; this target is reported under the same test.] (§1) The agonist activity of the compounds according to the invention towards PPARγ receptors may be evaluated by binding tests and transactivation tests.

[2] = target: T2, PPARγ receptors (Homo sapiens, UniProt P37231); assay: PPARγ binding test, competition with tritiated BRL 49,653; set-up: made in house; host or cells: Sf9 insect cells (recombinant baculovirus); conditions: hydroxyapatite gel, receptor from Sf9 insect cells, read-out: Binding of PPAR-γ Kd
T2 sequence (P37231 1-505): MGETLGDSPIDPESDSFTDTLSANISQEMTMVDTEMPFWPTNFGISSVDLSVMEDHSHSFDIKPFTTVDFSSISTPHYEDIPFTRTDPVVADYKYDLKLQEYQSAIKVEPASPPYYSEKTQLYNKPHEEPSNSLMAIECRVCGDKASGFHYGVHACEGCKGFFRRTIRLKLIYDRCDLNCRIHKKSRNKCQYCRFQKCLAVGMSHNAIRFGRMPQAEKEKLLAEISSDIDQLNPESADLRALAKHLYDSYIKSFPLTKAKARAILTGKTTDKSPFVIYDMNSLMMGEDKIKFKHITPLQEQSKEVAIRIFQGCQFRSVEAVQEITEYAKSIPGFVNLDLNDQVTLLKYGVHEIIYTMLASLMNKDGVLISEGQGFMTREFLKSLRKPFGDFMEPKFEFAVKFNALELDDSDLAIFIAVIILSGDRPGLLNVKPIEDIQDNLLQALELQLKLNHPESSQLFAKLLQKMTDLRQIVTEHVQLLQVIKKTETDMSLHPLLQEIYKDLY
Method: The technique of adsorption on hydroxyapatite gel was used to separate the receptor-bound ligand from the free ligand. The human PPARγ receptor was prepared from Sf9 insect cells infected with a recombinant baculovirus. The results are expressed as a Kd value (nM) which represents the equilibrium dissociation constant obtained for each compound.
as §1

[3] = target: T2, PPARγ receptors; assay: PPARγ transactivation test; format: cell-based; set-up: expressed in transfected cells; conditions: concentration of 1 μM, relative to SB 219994 = 100%
Text: as §1

| activation at 1 µM [1] | Kd [2] | activation at 1 µM [3] | % of activation of PPARα [1] | % of activation of PPARγ [3] | Structure (SMILES) |
| --- | --- | --- | --- | --- | --- |
| 17.6% | 2 nM | 102% | – | – | CCCCCCCC(=O)N(C)Cc1cccc(-c2ccc(CC3SC(=O)NC3=O)cc2)c1 (stereo not shown) [Example 34, N-[4′-(2,4-Dioxothiazolidin-5-ylmethyl)biphenyl-3-ylmethyl]-N-methyloctanamide] |
| 0% | 7 nM | 60.4% | – | – | CCCCCCCCC(=O)N(C)Cc1cccc(-c2ccc(CC3SC(=O)NC3=O)cc2)c1 (stereo not shown) [Example 12, N-[4′[2,4-dioxothiazolidin-5-ylmethyl)biphenyl-3-ylmethyl]-N-methylnonanamide] |
| 8.9% | – | 80.3% | – | – | CN(Cc1ccccc1)C(=O)c1cccc(-c2ccc(CC3SC(=O)NC3=O)cc2)c1 (stereo not shown) [Example 30, N-Benzyl-N-methyl-4′-(2,4-dioxothiazolidin-5-ylmethyl)biphenyl-3-carboxamide] |
| 11% | – | 56% | – | – | CCCCCCC(=O)N(C)Cc1cccc(-c2ccc(CC3SC(=O)NC3=O)cc2)c1 (stereo not shown) [Example 35, N-[4′-(2,4-Dioxothiazolidin-5-ylmethyl)biphenyl-3-ylmethyl]-N-methylheptanamide] |
| 8.2% | 55 nM | 102% | – | – | CN(Cc1cccc(-c2ccc(CC3SC(=O)NC3=O)cc2)c1)C(=O)c1ccccc1 (stereo not shown) [Example 1, N-[4′-(2,4-Dioxothiazolidin-5-ylmethyl)biphenyl-3-ylmethyl]-N-methylbenzamide] |
| 0% | 800 nM | 22.1% | – | – | CN(Cc1cccc(-c2ccc(CC3SC(=O)NC3=O)cc2)c1)C(=O)Nc1ccccc1 (stereo not shown) [Example 10, 1-[4′-(2,4-Dioxothiazolidin-5-ylmethyl)biphenyl-3-ylmethyl]-1-methyl-3-phenylurea] |
| 2.4% | 289 nM | 74.5% | – | – | CN(Cc1cccc(-c2ccc(CC3SC(=O)NC3=O)cc2)c1)C(=O)OC(C)(C)C (stereo not shown) [Example 11, tert-Butyl [4′-(2,4-dioxothiazolidin-5-ylmethyl)biphenyl-3-ylmethyl]methylcarbamate] |
| 0% | – | 74.9% | – | – | CCCCCCCCCC(=O)N(C)Cc1cccc(-c2ccc(CC3SC(=O)NC3=O)cc2)c1 (stereo not shown) [Example 32, N-[4′-(2,4-Dioxothiazolidin-5-ylmethyl)biphenyl-3-ylmethyl]-N-methyldecanamide] |
| 7.5% | 76.6 nM | 95.3% | – | – | CN(Cc1cccc(-c2ccc(CC3SC(=O)NC3=O)cc2)c1)C(=O)C(C)(C)C (stereo not shown) [Example 22, N-[4′-(2,4-Dioxothiazolidin-5-ylmethyl)biphenyl-3-ylmethyl]-2,2,N-trimethylpropionamide] |

More lines, now with the values behind:

| Structure (SMILES) | activation at 1 µM [1] | Kd [2] | activation at 1 µM [3] | % of activation of PPARα [1] | % of activation of PPARγ [3] |
| --- | --- | --- | --- | --- | --- |
| CCOc1ccc(C(=O)N(C)Cc2cccc(-c3ccc(CC4SC(=O)NC4=O)cc3)c2)cc1OCC (stereo not shown) [Example 28, N-[4′-(2,4-Dioxothiazolidin-5-ylmethyl)biphenyl-3-ylmethyl]-3,4-diethoxy-N-methylbenzamide] | 1.1% | – | 79.8% | – | – |
| CCO[C@@H](Cc1ccc(-c2cccc(CN(C)C(=O)c3ccccc3)c2)cc1)C(=O)O [Example 13, (S)-2-Ethoxy-3-(3′-{[methyl-(1-phenylmethanoyl)-amino]methyl}biphenyl-4-yl)propionic acid] | 0% | 24 nM | 70.2% | – | – |
| CN(Cc1cccc(-c2ccc(CC3SC(=O)NC3=O)cc2)c1)C(=O)OCC1c2ccccc2-c2ccccc21 (stereo not shown) [Example 21, 9H-Fluoren-9-ylmethyl [4′-(2,4-dioxothiazolidin-5-ylmethyl)biphenyl-3-ylmethyl]methylcarbamate] | 14.9% | 190 nM | 90% | – | – |
| CN(Cc1cccc(-c2ccc(CC3SC(=O)NC3=O)cc2)c1)C(=O)CCc1ccccc1 (stereo not shown) [Example 24, N-[4′-(2,4-Dioxothiazolidin-5-ylmethyl)biphenyl-3-ylmethyl]-N-methyl-3-phenylpropionamide] | 8.7% | 72.3 nM | 95% | – | – |
| CN(Cc1cccc(-c2ccc(CC3SC(=O)NC3=O)cc2)c1)c1ccccn1 (stereo not shown) [Example 2, 5-{3′-[(Methylpyrid-2-ylamino)methyl]biphenyl-4-ylmethyl}thiazolidine-2,4-dione] | 8.2% | 263 nM | 42.9% | – | – |
| Cc1cccc(Nc2cc(Cl)nc(SCC(=O)O)n2)c1C [Reference 1: Wy 14643, reference compound] | – | – | – | 100* % | – |
| CCCN(Cc1cccc(-c2ccc(C=C3SC(=O)NC3=O)cc2)c1)C(=O)c1ccccc1 [Example 26, N-[4′-(2,4-Dioxothiazolidin-5-ylidenemethyl)-biphenyl-3-ylmethyl]-N-propylbenzamide] | 2.1% | – | 88.6% | – | – |
| CN(CCOc1ccc(C[C@H](OCC(F)(F)F)C(=O)O)cc1)c1nc2ccccc2o1 [Reference 2: SB 219994, reference compound] | – | 0.5 nM | – | – | 100% |
